Like-named read-outs stand apart in the source and are kept apart here. Values belong to the compound of their own block, whether it stands above or below them.
What was measured:
[1] = tested on: A375 xenografts; test: Antitumor activity in A375 xenografts, monotherapy; assay type: in vivo, mice
Method: (§1) For measurement of antitumor activity in A375 xenografts, xenografts were initiated with A375 cells maintained by serial subcutaneous transplantation in female athymic nude mice. Each test mouse received an A375 tumor fragment (1 mm^3) implanted subcutaneously in the right flank. Once tumors reached target size (80-120 mm^3), animals were randomized into treatment and control groups, and drug treatment was initiated.
Oral temozolomide was administered as a positive reference compound at 75 or 175 mg/kg once daily (QD) for a total of five treatments (QD×5).

[2] = tested on: upstaged A375 xenografts; test: Upstaged A375 xenograft model, BVD-523 in combination with dabrafenib; assay type: in vivo, mice; conditions: 50 mg/kg BID; 11 evaluable mice
Method: (§2) Combination dosing was stopped on Day 20 to monitor for tumor regrowth. Animals were monitored individually and euthanized when each tumor reached an endpoint volume of 2000 mm^3, or the final day (Day 45), whichever came first, and median time to endpoint (TTE) calculated. The combination was also evaluated in an upstaged A375 model where larger tumors in the range 228-1008 mm^3 were evaluated. Here, mice were randomized into 1 group (Group 1) of 14 and 4 groups (Groups 2-5) of 20. […] Tumors were measured twice weekly. Combination dosing was stopped on Day 42 to monitor for tumor regrowth through study end (Day 60). Treatment outcome was determined from % TGD, defined as the percent increase in median TTE for treated versus control mice, with differences between groups analyzed via log rank survival analysis. […] Mice were also monitored for CR and PR responses. Animals with a CR at the end of the study were additionally classified as TFS.

[3] = tested on: patient-derived xenograft (AT052C); test: Patient-derived xenograft from vemurafenib-refractory BRAFV600E melanoma; assay type: in vivo, mice
[4] = tested on: BRAF^V600-mutant melanoma; conditions: cited from earlier work
[5] = tested on: A375 xenografts; test: A375 xenografts, BVD-523 in combination with dabrafenib; assay type: in vivo, mice; conditions: 100 mg/kg QD
From the text: as §1, §2

[6] = tested on: dose-escalated A375 cells; test: Proliferation assay (Alamar Blue, 96 h) in dose-escalated A375 cell lines; assay type: cell-based, human; conditions: for IC50: Homo sapiens; for Fold Change of IC50: BRAFi- + MEKi-resistant versus parental A375
[7] = tested on: A375 cells; test: Dose escalation study (acquisition of resistance); assay type: cell-based, human; conditions: progressively increasing concentrations
[8] = tested on: RKO MEK1 (Q56P/+) Clone 1; test: Single agent proliferation assay (CellTiter-Glo, 96 h); assay type: cell-based; conditions: RKO MEK1 Q56P/+ Cl.1
Method: (§3) For assessment of drug sensitivity in cell-line models of acquired resistance, drug sensitivity of dose-escalated A375 cells and isogenic RKO cells was assessed in 96-hour proliferation assays. […] For the A375 assays Alamar blue (ThermoFisher) 10% (v/v) was added and incubated for 4 h, and fluorescent product was then detected using a BMG FLUOstar.
(§4) RKO MEK1 Q56P Isogenic cells were produced by Horizon Discovery (Cambridge, UK; #HD 106-019) using a recombinant AAV-mediated gene targeting strategy. Briefly, rAAV virus was generated following transfection of the appropriate targeting vector and helper vectors in HEK293T cells, purified using an AAV purification kit (Virapur, San Diego, USA) and titrated using qPCR. Parental homozygous RKO cells (homozygous wild type for MEK1) were then infected with rAAV virus and clones that had integrated the selection cassette were identified by G418 selection and expanded. Correctly targeted clones that were heterozygous for knock-in of the MEK1 Q56P point mutation into a single allele were identified by PCR and sequencing.
(§5) Compounds were prepared from DMSO stocks to give the desired final concentrations. The final DMSO concentration was constant at 0.1%. […] CellTiter-Glo® reagent (Promega, Madison, Wis.) was added according to manufacturer's instructions and luminescence detected using the BMG FLUOstar plate reader (BMG Labtech, Ortenberg, Germany).

[9] = tested on: RKO MEK1 (Q56P/+) Clone 2; test: as above; assay type: cell-based; conditions: RKO MEK1 Q56P/+ Cl.2
Method: as §3, §4, §5

[10] = tested on: SW48 cell lines heterozygous for knock-in of mutant KRAS; test: Proliferation assay in isogenic SW48 lines with knock-in of mutant KRAS (Alamar blue, 96 h); assay type: cell-based; conditions: versus control SW48
Method: Isogenic SW48 cell lines heterozygous for knock-in of mutant KRAS (De Roock et al 2010, JAMA, 304, 1812-1820) were obtained from Horizon Discovery (Catalogue numbers; HD 103-002, HD 103-006 HD 103-007, HD 103-009, HD 103-010, HD 103-011, HD 103-013). […] Viability was then assessed using Alamar blue.

[11] = tested on: A375 cells; test: Proliferation assay (Alamar Blue, 96 h) in parental A375 cells; assay type: cell-based; conditions: Homo sapiens, A-375, Parental A375
[12] = tested on: RKO Parental; test: Single agent proliferation assay (CellTiter-Glo, 96 h); assay type: cell-based
Method: as §3, §5

[13] = A-375, BRAFi- + MEKi-resistant (dabrafenib and trametinib combination-resistant) A375 population, read-out: IC50
[14] = A-375, Month 1, Dab/Tram-escalated line, read-out: Relative IC50
[15] = A-375, Month 1, Tram/523-escalated line, read-out: Relative IC50
[16] = A-375, Month 2, Dab/Tram-escalated line, read-out: Relative IC50
[17] = A-375, Month 2, Tram/523-escalated line, read-out: Relative IC50
[18] = A-375, Month 3, Dab/Tram-escalated line, read-out: Relative IC50
[19] = A-375, Month 3, Tram/523-escalated line, read-out: Relative IC50

SMILES: Cn1nnc2c(C(N)=O)ncn2c1=O [temozolomide]
tumor growth inhibition (TGI) ([1]; 75 mg/kg QD×5): 34%
tumor growth inhibition (TGI) ([1]; 175 mg/kg QD×5): 78%

SMILES: CC(C)(C)c1nc(-c2cccc(NS(=O)(=O)c3c(F)cccc3F)c2F)c(-c2ccnc(N)n2)s1 [Dabrafenib]
CRs [2]: 5
PRs [2]: 5
TFS [2]: 3
TGI ([3]; 50 mg/kg BID): 22%
activity in patient-derived line ST052C ([3]; dabrafenib 50 mg/kg BID, BVD-523 100 mg/kg BID): acquired cross-resistance
overall survival ([4]; Long et al. 2015, BRAF^V600E/K): 18.7 months
overall response ([4]; Long et al. 2015): 53%
progression-free survival (PFS) ([4]; Long et al. 2015): 8.8 months
response rate ([4]; phase III, single agent versus dacarbazine): approximately 50%
PR [5]: 1
IC50 ([6]; A-375, BRAFi- + MEKi-resistant (dabrafenib and trametinib combination-resistant) A375 population): 17.9 nM
IC50 ([6]; A-375, read-out: Relative IC50, Month 1, BVD-523-escalated line): 8 nM
IC50 ([6]; A-375, read-out: Relative IC50, Month 1, Dab/523-escalated line): 68 nM
IC50 ([6]; A-375, read-out: Relative IC50, Month 1, Dab/Tram-escalated line): 58 nM
IC50 ([6]; A-375, read-out: Relative IC50, Month 1, Tram-escalated line): 29 nM
IC50 ([6]; A-375, read-out: Relative IC50, Month 1, Tram/523-escalated line): 11 nM
IC50 ([6]; A-375, read-out: Relative IC50, Month 2, BVD-523-escalated line): 697 nM
IC50 ([6]; A-375, read-out: Relative IC50, Month 2, Dab-escalated line): 11.5 nM
IC50 ([6]; A-375, read-out: Relative IC50, Month 2, Dab/523-escalated line): 218 nM
IC50 ([6]; A-375, read-out: Relative IC50, Month 2, Dab/Tram-escalated line): 256 nM
IC50 ([6]; A-375, read-out: Relative IC50, Month 2, Tram/523-escalated line): 68 nM
IC50 ([6]; A-375, read-out: Relative IC50, Month 3, BVD-523-escalated line): 18.4 nM
IC50 ([6]; A-375, read-out: Relative IC50, Month 3, Dab-escalated line): 2.5 nM
IC50 ([6]; A-375, read-out: Relative IC50, Month 3, Dab/523-escalated line): 337 nM
IC50 ([6]; A-375, read-out: Relative IC50, Month 3, Dab/Tram-escalated line): 17.9 nM
IC50 ([6]; A-375, read-out: Relative IC50, Month 3, Tram/523-escalated line): 73 nM
emergence of drug-resistant cell lines [7]: readily obtained

IC50 [6, 13]: 3.5 nM
IC50 [6, 14]: 3.5 nM
IC50 [6, 15]: 3.4 nM
IC50 [6, 16]: 4.7 nM
IC50 [6, 17]: 8.9 nM
IC50 [6, 18]: 4.7 nM
IC50 [6, 19]: 8.9 nM
SMILES: CC(=O)O[C@H]1C(=O)[C@@]2(C)[C@H]([C@H](OC(=O)c3ccccc3)[C@]3(O)C[C@H](OC(=O)[C@H](O)[C@@H](NC(=O)c4ccccc4)c4ccccc4)C(C)=C1C3(C)C)[C@]1(OC(C)=O)CO[C@@H]1C[C@@H]2O [Paclitaxel]
IC50 [8]: 2 nM
IC50 [9]: 2 nM
sensitivity after knock-in of KRAS mutant alleles [10]: unaltered
Fold Change of IC50 [6]: +1.8 fold
IC50 [11]: 1.9 nM
IC50 [12]: 2 nM

IC50 [6, 13]: 2.7 nM
IC50 [6, 14]: 3.9 nM
IC50 [6, 15]: 2.5 nM
IC50 [6, 16]: 12.6 nM
IC50 [6, 17]: 4.6 nM
IC50 [6, 18]: 2.7 nM
IC50 [6, 19]: 11.2 nM
SMILES: CC(=O)Nc1cccc(-n2c(=O)n(C3CC3)c(=O)c3c(Nc4ccc(I)cc4F)n(C)c(=O)c(C)c32)c1 [Trametinib]
IC50 [8]: 93 nM
IC50 [9]: 80 nM
Fold Change of IC50 [6]: +13.5 fold
Fold Change of IC50 ([6]; listed as trametinib): 13.5 fold
IC50 [11]: 0.2 nM
IC50 [12]: 6 nM
